Experimental findings from patent US20250145631A1, “HETEROCYCLIC COMPOUND ACTING ON G12D MUTANT KRAS PROTEIN” (Astellas Pharma Inc., priority 2022, published 2025) are described below.

One experiment deals with T1, KRAS G12D (Homo sapiens, UniProt P01116, G12D).
T1 construct: host or cells: AsPC-1 (human pancreatic cancer line)
The experiment is described as follows: KRAS degradation activity by Cell ELISA in AsPC-1 cells (Test Example 1). The experiment is classed as cell-based. As to conditions: Cell ELISA; for Dmax: ASPC1, overnight treatment, read-out: Dmax (degradation rate at the concentration showing highest degradation); for DC50: overnight treatment, read-out: DC50 (50% degradation concentration of KRAS). Summed up:
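AsPC-1 cells (2.0×10^4/well) treated overnight with compounds at 10 μM–0.3 nM (10 points), then fixed, permeabilised and stained for KRAS G12D (800 nm) and β-actin (700 nm) by in-cell ELISA. KRAS signal normalised to β-actin, DMSO set as 0% and actin-only staining as 100%; DC50 from Sigmoid-Emax regression up to Dmax.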

For experiment [1], the system named is human KRAS G12D mutant-positive PK-59 pancreatic cancer cell line-derived xenograft. The experiment is described as follows: Anti-tumor activity in PK-59 xenograft mice (Test Example 4). As to conditions: 3 mg/kg into tail vein, once a week, twice in total; PK-59 xenograft nude mice. The experiment is classed as in vivo. How it is done:
PK-59 cells (RIKEN BioResearch Center, RCB1901) were cultured using RPMI 1640 medium containing 10% fetal bovine serum in the presence of 5% CO2 at 37° C. The PK-59 cells were collected and suspended in PBS, and after adding an equal amount of Matrigel (from Becton, Dickinson and Company), 4- to 5-week-old male nude mice (BALB/c-nu (nu/nu), from Charles River Laboratories Japan) were subcutaneously inoculated with the cell suspension of 1.0 to 2.0×10^7 cells/mL was subcutaneously inoculated in a volume of 100 μL per mouse. About two weeks after the inoculation, the mice were divided into groups so that all the groups had approximately the same tumor volume and body weight, and administration of test compounds was started on the next day. The study was conducted for 5 mice each of a vehicle group and test compound administration groups. The compounds were dissolved in a solvent containing ethanol (from FUJIFILM Wako Pure Chemical Corporation), a 5% glucose solution (from Otsuka Pharmaceutical), 1M hydrochloric acid (from Kanto Chemical Co., Inc.), 50% (2-hydroxypropyl)-P-cyclodextrin (HP-βCD) solution (from ROQUETTE), HCO-40 (from Nikko Chemicals Co., Ltd.) and 1M sodium hydroxide solution (from Kanto Chemical Co., Inc.) at a liquid amount ratio of 4:84.4:1.1:1:9:0.5. The test compounds dissolved in the respective solvents or the solvents were administered into tail vein. The administration was performed once a week and twice in total. The tumor sizes and the body weights were measured twice a week. The tumor volumes were calculated using the following equation.
[Tumor volume (mm^3)]=[Long diameter of tumor (mm)]×[Short diameter of tumor (mm)]^2×0.5
The tumor growth inhibition rate (%) by the test compounds were calculated with the tumor volumes of the test compound administration groups on the previous day of the start of the administration taken as 100% inhibition and the tumor volumes of the vehicle groups two weeks after the initial administration taken as 0% inhibition. In addition, when the tumor volume of a test compound administration group was smaller than the tumor volume on the previous day of the start of the administration, the tumor regression rate (%) by the test compound was calculated with the tumor volume on the previous day of the start of the administration taken as 0% regression and with the tumor volume 0 taken as 100% regression.

T1 sequence (P01116 1-188 isoform P01116-2 G12D): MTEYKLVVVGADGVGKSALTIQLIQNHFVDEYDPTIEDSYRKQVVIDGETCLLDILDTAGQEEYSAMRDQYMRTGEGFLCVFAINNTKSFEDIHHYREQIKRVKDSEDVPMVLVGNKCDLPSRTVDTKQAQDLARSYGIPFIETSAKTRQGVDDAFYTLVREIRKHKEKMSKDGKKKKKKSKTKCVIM

On to `Cc1c(F)cc2[nH]ncc2c1-c1c(C2CC2)cc2c(N3C[C@@H]4C[C@H]3CN4)nc(OC3CCOCC3)nc2c1OCc1ccc(C(=O)N2CCN(Cc3ccc4c(c3)n(C)c(=O)n4C3CCC(=O)NC3=O)C[C@@H]2C)cc1` (stereo partly drawn) [Example 8, 3-(5-{[(3S)-4-{4-[({(7M)-6-cyclopropyl-4-[(1S,4S)-2,5-diazabicyclo[2.2.1]heptan-2-yl]-7-(6-fluoro-5-methyl-1H-indazol-4-yl)-2-[(oxan-4-yl)oxy]quinazolin-8-yl}oxy)methyl]benzoyl}-3-methylpiperazin-1-yl]methyl}-3-methyl-2-oxo-2,3-dihydro-TH-benzimidazol-1-yl)piperidine-2,6-dione], for which, at KRAS G12D, the Dmax is 86% and the DC50 came to 13 nM. Moreover, the “Anti-Tumor Activity Two Weeks After Initial Administration (tumor regression rate)” value in experiment [1] was determined as 28% regression.

As for `CO[C@@H](C)COc1nc(N2C[C@@H]3C[C@H]2CN3)c2cc(C3CC3)c(-c3c(C)c(F)cc4[nH]ncc34)c(OCc3ccc(C(=O)N4CCN(Cc5ccc6c(c5)n(C)c(=O)n6C5CCC(=O)NC5=O)C[C@@H]4C)cc3)c2n1` (stereo partly drawn) [Example 10, 3-(5-{[(3S)-4-{4-[({(7M)-6-cyclopropyl-4-[(1S,4S)-2,5-diazabicyclo[2.2.1]heptan-2-yl]-7-(6-fluoro-5-methyl-1H-indazol-4-yl)-2-[(2S)-2-methoxypropoxy]quinazolin-8-yl}oxy)methyl]benzoyl}-3-methylpiperazin-1-yl]methyl}-3-methyl-2-oxo-2,3-dihydro-1H-benzimidazol-1-yl)piperidine-2,6-dione], at KRAS G12D, the Dmax was determined as 86% and the DC50 is 8 nM. Besides, in experiment [1], the “Anti-Tumor Activity Two Weeks After Initial Administration (tumor regression rate)” value was 28% regression.

Consider `CO[C@@H](C)COc1cc(O[C@H]2CCNC2)c2cc(C3CC3)c(-c3c(C)c(F)cc4[nH]ncc34)c(OCc3ccc(C(=O)N4CCN(Cc5ccc6c(c5)n(C)c(=O)n6C5CCC(=O)NC5=O)C[C@@H]4C)cc3)c2n1` (stereo partly drawn) [Example 12, 3-[5-({(3S)-4-[4-({[6-cyclopropyl-7-(6-fluoro-5-methyl-1H-indazol-4-yl)-2-[(2S)-2-methoxypropoxy]-4-{[(3S)-pyrrolidin-3-yl]oxy}quinolin-8-yl]oxy}methyl)benzoyl]-3-methylpiperazin-1-yl}methyl)-3-methyl-2-oxo-2,3-dihydro-1H-benzimidazol-1-yl]piperidine-2,6-dione], for which, at KRAS G12D, the Dmax came out at 82% and the DC50 is 18 nM. For the same compound, the “Anti-Tumor Activity Two Weeks After Initial Administration (tumor regression rate)” value in experiment [1] is recorded as 35% regression.

Consider `CO[C@@H](C)COc1cc(N2C[C@@H]3C[C@H]2CN3)c2cc(C3CC3)c(-c3c(C)c(F)cc4[nH]ncc34)c(OCc3ccc(C(=O)N4CCN(Cc5ccc6c(c5)n(C)c(=O)n6C5CCC(=O)NC5=O)C[C@@H]4C)cc3)c2n1` (stereo partly drawn) [Example 29, 3-(5-{[(3S)-4-{4-[({6-cyclopropyl-4-[(1S,4S)-2,5-diazabicyclo[2.2.1]heptan-2-yl]-7-(6-fluoro-5-methyl-1H-indazol-4-yl)-2-[(2S)-2-methoxypropoxy]quinolin-8-yl}oxy)methyl]benzoyl}-3-methylpiperazin-1-yl]methyl}-3-methyl-2-oxo-2,3-dihydro-1H-benzimidazol-1-yl)piperidine-2,6-dione], for which, at KRAS G12D, the Dmax turned out to be 86% and the DC50 is 22 nM. Moreover, the “Anti-Tumor Activity Two Weeks After Initial Administration (tumor regression rate)” value in experiment [1] is on record as 5% regression.
